The structures appear in SMILES notation.

The target in this assay is hFXR (Homo sapiens (Human), UniProt Q96RI1). The assay can be described thus: In Vitro FXR Assay (TK), luciferase reporter in transfected CV-1 cells. The format is cell-based. Conditions: TK-ECRE-luc reporter, hFXR/hRXR, 18 hrs, maximum efficacy <25% of Fexaramine control classified as '+'. As to the method: CV-1 cells were seeded at a density of 2,000,000 cells in a T175 flask with DMEM+10% charcoal double-stripped FBS and incubated at 37° C. in 5% CO2 for 18 h (O/N).
Chain of hFXR (Q96RI1 whole entry): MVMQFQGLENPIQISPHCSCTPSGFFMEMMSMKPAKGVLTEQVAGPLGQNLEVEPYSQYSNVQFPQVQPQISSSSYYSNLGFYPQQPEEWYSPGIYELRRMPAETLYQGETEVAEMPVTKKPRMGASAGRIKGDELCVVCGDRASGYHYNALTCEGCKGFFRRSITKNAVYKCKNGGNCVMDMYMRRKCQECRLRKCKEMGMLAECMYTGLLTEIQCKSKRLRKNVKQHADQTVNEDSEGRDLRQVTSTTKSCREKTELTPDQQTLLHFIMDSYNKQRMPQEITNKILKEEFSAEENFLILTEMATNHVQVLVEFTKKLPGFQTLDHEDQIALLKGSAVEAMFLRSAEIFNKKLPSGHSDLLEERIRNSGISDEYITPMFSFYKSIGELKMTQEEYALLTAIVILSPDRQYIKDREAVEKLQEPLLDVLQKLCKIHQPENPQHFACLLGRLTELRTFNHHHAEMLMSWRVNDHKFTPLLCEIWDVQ
Chain of hFXR (P19793 whole entry partner): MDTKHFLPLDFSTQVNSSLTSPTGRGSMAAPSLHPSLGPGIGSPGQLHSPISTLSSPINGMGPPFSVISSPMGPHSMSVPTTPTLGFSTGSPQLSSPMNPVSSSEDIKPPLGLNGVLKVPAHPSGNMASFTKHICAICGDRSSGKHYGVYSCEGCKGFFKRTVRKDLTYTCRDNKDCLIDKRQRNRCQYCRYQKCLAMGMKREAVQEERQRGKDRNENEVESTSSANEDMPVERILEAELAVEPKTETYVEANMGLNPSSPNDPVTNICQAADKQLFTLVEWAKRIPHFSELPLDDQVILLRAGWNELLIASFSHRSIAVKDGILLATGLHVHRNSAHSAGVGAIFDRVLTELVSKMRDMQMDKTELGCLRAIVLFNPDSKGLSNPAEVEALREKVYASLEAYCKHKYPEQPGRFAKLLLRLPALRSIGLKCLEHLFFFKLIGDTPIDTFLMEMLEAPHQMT
After 18 h of incubation, the medium in the T175 flask was changed with fresh DMEM+10% charcoal super-stripped serum. In a polypropylene tube, 2500 μL OptiMEM (Life Technologies, Cat #31985-062) was combined with expression plasmids for hFXR, hRXR, TK-ECRE-luc and pCMX-YFP. The tube was then briefly vortexed and incubated at room temperature for 5 minutes. Transfection reagent (X-tremeGENE HP from Roche, Cat #06 366 236 001) was added to the OptiMEM/plasmid mixture vortexed and incubated at room temperature for 20 minutes. Following incubation, the transfection reagent/DNA mixture complex was added to cells in the T175 flask and the cells were incubated at 37° C. in 5% CO2 for 18 h (O/N).
Compounds were serially diluted in DMSO and added to transfected CV-1 cells. The cells were then incubated for 18 hrs. The next day cells were lysed and examined for luminescence.
(In general: A reporter such as luciferase makes a cellular process visible.)
As for `COC(=O)c1ccc2c(N(Cc3ccc(-c4cnc(OC)c(Cl)c4)cc3)C(=O)CC(C)(C)C)nccc2c1` [Compound 36, Methyl 1-(N-(4-(5-chloro-6-methoxypyridin-3-yl)benzyl)-3,3-dimethylbutanamido)isoquinoline-6-carboxylate], the EC50 was ≤ 1000 nM.
In the case of `COC(=O)c1ccc2c(N(Cc3ccc(-c4ccc(N(C)C)cc4)cc3)C(=O)C(C)(C)C)nccc2c1` [Compound 17, Methyl 1-(N-((4-(dimethylamino)-[1,1′-biphenyl]-4-yl)methyl)pivalamido)isoquinoline-6-carboxylate] it was 1000 to 10000 nM.
Consider `COC(=O)c1ccc2c(N(Cc3ccc(-c4cnc5c(ccn5C)c4)cc3)C(=O)CC(C)(C)C)nccc2c1` [Compound 49, Methyl 1-(3,3-dimethyl-N-(4-(1-methyl-1H-pyrrolo[2,3-b]pyridin-5-yl)benzyl)butanamido)isoquinoline-6-carboxylate], for which the EC50 is ≤ 1000 nM.
As to `COC(=O)c1ccc2c(N(Cc3ccc(-c4ccc(OC)c(C#N)c4)cc3)C(=O)CC(C)(C)C)nccc2c1` [Compound 24, Methyl 1-(N-((3′-cyano-4′-methoxy-[1,1′-biphenyl]-4-yl)methyl)-3,3-dimethylbutanamido)isoquinoline-6-carboxylate], the EC50 is ≤ 1000 nM.
The figure for `COc1ccc(-c2ccc(CN(C(=O)CC(C)(C)C)c3nccc4cc(C(=O)OC(C)C)ccc34)cc2)cc1C` [Compound 69, Isopropyl 1-(N-((4′-methoxy-3′-methyl-[1,1′-biphenyl]-4-yl)methyl)-3,3-dimethylbutanamido)isoquinoline-6-carboxylate] is ≤ 1000 nM; for `COC(=O)c1ccc2c(N(Cc3ccc(-c4ccc(OC)c(C)c4)cc3)C(=O)C3CCCCC3)nccc2c1` [Compound 20, Methyl 1-(N-((4′-methoxy-3′-methyl-[1,1′-biphenyl]-4-yl)methyl)cyclohexanecarboxamido) isoquinoline-6-carboxylate] it is ≤ 1000 nM.
As for `COC(=O)c1ccc2c(N(Cc3ccc(-c4ccc5sc(C)nc5c4)cc3)C(=O)CC(C)(C)C)nccc2c1` [Compound 50, Methyl 1-(3,3-dimethyl-N-(4-(2-methylbenzo[d]thiazol-5-yl)benzyl)butanamido)isoquinoline-6-carboxylate], the 50% effective concentration (EC50) was 1000 to 10000 nM.
For the compound `COC(=O)c1ccc2c(N(Cc3ccc(-c4ccc(OC)c(C)c4)cc3)C(=O)C3CCCCCC3)nccc2c1` [Compound 25, Methyl 1-(N-((4′-methoxy-3′-methyl-[1,1′-biphenyl]-4-yl)methyl)cycloheptanecarboxamido) isoquinoline-6-carboxylate], the EC50 is ≤ 1000 nM.
`CCOc1ccc(-c2ccc(CN(C(=O)CC(C)(C)C)c3nccc4cc(C(=O)OC)ccc34)cc2)cc1` [Compound 52, Methyl 1-(N-((4′-ethoxy-[1,1′-biphenyl]-4-yl)methyl)-3,3-dimethylbutanamido)isoquinoline-6-carboxylate]: the EC50 is 1000 to 10000 nM.
Regarding `COC(=O)c1ccc2c(N(Cc3ccc(-c4ccc(OC)c(C)c4)cc3)C(=O)CCCO)nccc2c1` [Compound 85, Methyl 1-(4-hydroxy-N-((4′-methoxy-3′-methyl-[1,1′-biphenyl]-4-yl)methyl)butanamido) isoquinoline-6-carboxylate], the EC50 was ≥ 10000 nM.
Consider `CCCC(=O)N(Cc1ccc(-c2ccc(OC)c(C)c2)cc1)c1nccc2cc(C(=O)OC)ccc12` [Compound 82, Methyl 1-(N-((4′-methoxy-3′-methyl-[1,1′-biphenyl]-4-yl)methyl)butyramido)isoquinoline-6-carboxylate], for which the EC50 is ≤ 1000 nM.
As to `COc1ccc(-c2ccc(CN(C(=O)CC(C)(C)C)c3nccc4cc(C(=O)O)ccc34)cc2)cc1C` [Compound 101, 1-(N-((4′-methoxy-3′-methyl-[1,1′-biphenyl]-4-yl)methyl)-3,3-dimethylbutanamido) isoquinoline-6-carboxylic acid], the EC50 is ≥ 10000 nM.
With `COC(=O)c1ccc2c(N(Cc3ccc(-c4ccc(N(C)C)cc4)cc3)C(=O)C3CCCCC3)nccc2c1` [Compound 13, Methyl 1-(N-((4′-(dimethylamino)-[1,1′-biphenyl]-4-yl)methyl)cyclohexanecarboxamido) isoquinoline-6-carboxylate], the EC50 is ≤ 1000 nM.
As for `COC(=O)c1ccc2c(N(Cc3ccc(-c4ccc(N(C)C)nc4)cc3)C(=O)CC(C)(C)C)nccc2c1` [Compound 38, Methyl 1-(N-(4-(6-(dimethylamino)pyridin-3-yl)benzyl)-3,3-dimethylbutanamido)isoquinoline-6-carboxylate], the EC50 is ≤ 1000 nM.
Compound `COC(=O)c1ccc2c(N(Cc3ccc(-c4ccc(OC)c(C)c4)cc3)C(=O)CCc3ccccc3)nccc2c1` [Compound 77, Methyl 1-(N-((4′-methoxy-3′-methyl-[1,1′-biphenyl]-4-yl)methyl)-3-phenylpropanamido)isoquinoline-6-carboxylate] displayed an EC50 of 1000 to 10000 nM.
Turning to `COC(=O)c1ccc2c(N(Cc3ccc(-c4cnc(OC)c(F)c4)cc3)C(=O)CC(C)(C)C)nccc2c1` [Compound 35, Methyl 1-(N-(4-(5-fluoro-6-methoxypyridin-3-yl)benzyl)-3,3-dimethylbutanamido)isoquinoline-6-carboxylate], the EC50 was ≤ 1000 nM.
The figure for `COC(=O)c1ccc2c(N(Cc3ccc(-c4ccc5c(ccn5C)c4)cc3)C(=O)CC(C)(C)C)nccc2c1` [Compound 44, Methyl 1-(3,3-dimethyl-N-(4-(1-methyl-1H-indol-5-yl)benzyl)butanamido)isoquinoline-6-carboxylate] is ≤ 1000 nM.
Compound `COC(=O)c1ccc2c(N(Cc3ccc(-c4ccc(OCCO)cc4)cc3)C(=O)CC(C)(C)C)nccc2c1` [Compound 60, Methyl 1-(N′-((4′-(2-hydroxyethoxy)-[1,1′-biphenyl]-4-yl)methyl)-3,3-dimethylbutanamido)isoquinoline-6-carboxylate] registered an EC50 of 1000 to 10000 nM.
Turning to `COC(=O)c1ccc2c(N(Cc3ccc(-c4cnc(OC)c(C)c4)cc3)C(=O)CC(C)(C)C)nccc2c1` [Compound 37, Methyl 1-(N-(4-(6-methoxy-5-methylpyridin-3-yl)benzyl)-3,3-dimethylbutanamido)isoquinoline-6-carboxylate], the 50% effective concentration (EC50) is ≤ 1000 nM.
With `COC(=O)c1cc2cccc(N(Cc3ccc(-c4ccc(N(C)C)cc4)cc3)C(=O)C3CCCCC3)c2[nH]1` [Compound 10, Methyl 7-(N-((4′-(dimethylamino)-[1,1′-biphenyl]-4-yl)methyl)cyclohexanecarboxamido)-1H-indole-2-carboxylate], the EC50 is ≥ 10000 nM.
The figure for `COC(=O)c1ccc2c(N(Cc3ccc(-c4ccc5c(c4)OCCO5)cc3)C(=O)CC(C)(C)C)nccc2c1` [Compound 48, Methyl 1-(N-(4-(2,3-dihvdrobenzo[b][1,4]dioxin-6-yl)benzyl)-3,3-dimethylbutanamido)isoquinoline-6-carboxylate] is ≤ 1000 nM.
Consider `COC(=O)c1ccc2c(N(Cc3ccc(-c4ccc5c(c4)CCN5)cc3)C(=O)CC(C)(C)C)nccc2c1` [Compound 63, Methyl 1-(N-(4-(indolin-5-yl)benzyl)-3,3-dimethylbutanamido)isoquinoline-6-carboxylate], for which the EC50 is ≤ 1000 nM.
The figure for `COC(=O)c1ccc2ccc(N(Cc3ccc(-c4ccc(N(C)C)cc4)cc3)C(=O)C3CCCCC3)cc2c1` [Compound 15, Methyl 7-(N-((4′-(dimethylamino)-[1,1′-biphenyl]-4-yl)methyl)cyclohexanecarboxamido)-2-naphthoate] is ≥ 10000 nM; for `COC(=O)c1ccc2c(N(Cc3ccc(-c4ccc(OC)c(C)c4)cc3)C(C)=O)nccc2c1` [Compound 27, Methyl 1-(N-((4′-methoxy-3′-methyl-[1,1′-biphenyl]-4-yl)methyl)acetamido)isoquinoline-6-carboxylate] it is ≥ 10000 nM.
In the case of `COCCOc1ccc(-c2ccc(CN(C(=O)CC(C)(C)C)c3nccc4cc(C(=O)OC)ccc34)cc2)cc1` [Compound 59, Methyl 1-(N-((4′-(2-methoxyethoxy)-[1,1-biphenyl]-4-yl)methyl)-3,3-dimethylbutanamido)isoquinoline-6-carboxylate] it was 1000 to 10000 nM.
The figure for `COc1ccc([C@H]2CC[C@H](CN(C(=O)CC(C)(C)C)c3nccc4cc(C(=O)OC(C)C)ccc34)CC2)cc1C` [Compound 87, Isopropyl 1-(N-((trans-4-(4-methoxy-3-methylphenyl)cyclohexyl)methyl)-3,3-dimethylbutanamido)isoquinoline-6-carboxylate] is ≤ 1000 nM; for `CCC(C)(C)CC(=O)N(C[C@H]1CC[C@H](c2ccc(OC)c(C)c2)CC1)c1nccc2cc(C(=O)OC(C)C)ccc12` [Compound 88, Isopropyl 1-(N-((trans-4-(4-methoxy-3-methylphenyl)cyclohexyl)methyl)-3,3-dimethylpentanamido)isoquinoline-6-carboxylate] it is ≤ 1000 nM.
As for `COC(=O)c1ccc2c(N(Cc3ccc(-c4ccc5c(c4)CCN5C)cc3)C(=O)CC(C)(C)C)nccc2c1` [Compound 64, Methyl 1-(3,3-dimethyl-N-(4-(1-methylindolin-5-yl)benzyl)butanamido)isoquinoline-6-carboxylate], the concentration giving a half-maximal response (EC50) was ≤ 1000 nM.
As for `COC(=O)c1ccc2c(N(Cc3ccc(-c4ccc(Cl)c(C#N)c4)cc3)C(=O)CC(C)(C)C)nccc2c1` [Compound 32, Methyl 1-(N-((4′-chloro-3′-cyano-[1,1′-biphenyl]-4-yl)methyl)-3,3-dimethylbutanamido)isoquinoline-6-carboxylate], the EC50 lay within 1000 to 10000 nM.

The term EC50 denotes the concentration needed to bring the measured effect to its halfway point. Low values mean greater potency, high ones weaker potency.

The values above are taken from patent publication US10377717B2, “Farnesoid X receptor agonists and uses thereof” (Metacrine, Inc., priority 2015, dated 2019).
